Tested on: TGFβ1-induced expression of α-SMA protein in human HSC
Assay: α-SMA ELISA in TGFβ1-activated human hepatic stellate cells
Assay type: cell-based
Conditions: [Cpd] = 3 μM, 1 h preincubation, TGFβ1 1 ng/ml, 48 h
Description: Serum-deprived HSC were preincubated for 1 hour with RM-5061 before the activation with the profibrogenic cytokine TGFβ1 (1 ng/ml). After 48 hours of incubation, the α-SMA content was measured by ELISA. The obtained values were transformed into percentage inhibition over TGFβ1 control. Data are presented as mean (quadruplicates)±standard error of the mean (SEM). Statistical analyses were performed by one-way ANOVA followed by Bonferroni post-hoc tests, using Sigma Plot 11.0 software. [*: p<0.05; **: p<0.01; ***: p<0.001 (comparison versus TGFβ1 1 ng/mL group)]. The curve fitting and the calculation of half maximal inhibitory concentration (IC50) were performed with XLFit software 5.3.1.3.
Serum-deprived HSC were preincubated for 1 hour with Cpd.5 before the activation with the profibrogenic cytokine TGFβ1 (1 ng/ml). After 48 hours of incubation, the expression of α-SMA was measured by ELISA. The obtained values were transformed into percentage inhibition over TGFβ1 control. Data are presented as mean (triplicates)±standard deviation (SD). Statistical analyses were performed by one-way ANOVA followed by Bonferroni post-hoc tests, using Sigma Plot 11.0 software. [*: p<0.05; **: p<0.01; ***: p<0.001 (comparison versus TGFμ1 1 ng/mL group)]. The curve fitting and the calculation of half maximal inhibitory concentration (IC50) were performed with XLFit software 5.3.1.3.
The human primary hepatic stellate cells (hHSC) (Innoprot) were cultured in STeCM medium (ScienCell cat #5301) that was supplemented with 2% fetal bovine serum (FBS, ScienCell cat #0010), 1% penicillin/streptomycin (ScienCell cat #0503) and stellate cell growth supplement (SteCGS; ScienCell cat #5352). Cell culture flasks were coated with Poly-L Lysine (Sigma cat #P4707) for a better adherence.
The human primary hepatic stellate cells (hHSC) (Innoprot) were cultured under standard conditions, as described above. The cells were subsequently plated at a density of 2×10^4cells/well or 6,5×10^3 cells/well into 96-well or 384-well plates respectively. The next day, cell-culture medium was removed, and cells were washed with PBS (Invitrogen cat #14190). Then, hHSC were deprived for 24 hours in serum-free and SteCGS-free medium. For the treatments with compounds of formula (I), the serum-deprived hHSC were preincubated for 1 hour with the compounds followed by addition of the profibrogenic stimuli TGFβ1 (PeproTech cat #100-21, 1 ng/mL) in serum-free and SteCGS-free medium for an additional 48 hour period. At the end of treatment, the cell culture supernatants of treated-HSC were transferred into a new plate before storage at −20° C.The cells were washed with PBS (Invitrogen, cat #14190) before the addition of lysis buffer (CelLytic™ MT reagent; Sigma #C3228). Plates were then incubated for 30 min on ice using a plate shaker, before storage at −20° C.
The level of α-SMA was measured using a Sandwich ELISA. Briefly, the wells of an ELISA plate were first coated with the capture antibody (mouse monoclonal anti-ACTA2, Abnova) at 4° C. overnight. After 3 washes in PBS +0.2% Tween 20, a blocking solution consisting of PBS +0.2% BSA was added for one hour followed by another washing cycle. The cell lysates were transferred into the wells for binding to the capture antibody for a period of 2 h at room temperature. After the washing procedure, the detection antibody (biotinylated mouse monoclonal anti-ACTA2, Abnova) was added for 2 hours at room temperature followed by 3 washes. For the detection, an HRP-conjugated Streptavidin (R&D Systems cat #DY998) was first applied for 30 min at room temperature. After washing, the HRP substrate TMB (;BD, #555214) was added and incubated for 7 min at room temperature in the dark. Upon oxidation, TMB forms a water-soluble blue reaction product that becomes yellow with addition of sulfuric acid (solution stop), enabling accurate measurement of the intensity at 450 nm using a spectrophotometer. […]

## Cc1sc(NC(=O)c2c(F)cccc2F)nc1-c1ccccc1 [Cpd3, 2,6-difluoro-N-(5-methyl-4-phenyl-1,3-thiazol-2-yl)benzamide]
  % I over TGFβ (α-SMA): 48%

## O=C(O)c1ccccc1-c1ccccc1C(=O)Nc1nc2ccccc2s1 [Cpd1, 2′-(benzo[d]thiazol-2-ylcarbamoyl)-[1,1′-biphenyl]-2-carboxylic acid]
  % I over TGFβ (α-SMA): 40%

## O=C(Nc1nc(-c2ccc3ccccc3c2)cs1)c1cc([N+](=O)[O-])ccc1Cl [Cpd4, 2-chloro-N-[4-(2-naphthyl)-1,3-thiazol-2-yl]-5-nitrobenzamide]
  % I over TGFβ (α-SMA): 53%

## COc1ccccc1C(=O)Nc1nc(-c2cccs2)c(NC(=O)c2ccccc2)s1 [Cpd2, N-(5-benzamido-4-(thiophen-2-yl)-1,3-thiazol-2-yl)-2-methoxybenzamide]
  % I over TGFβ (α-SMA): 43%
